Results taken from patent publication US20260207769A1, “ANTIBODY DRUG CONJUGATES” (YALE UNIVERSITY, priority 2022, published 2026).

What was measured:
[1] = system: BRCA2^−/− DLD-1 colorectal adenocarcinoma cells; experiment: Cell viability assay in BRCA2-/- DLD-1 cells; assay type: cell-based, human; settings: BRCA^−/− DLD-1 cells
Excerpt: (§1) Cancer cell lines were acquired from ATCC and cultured according to well known methods in the art. Treatment with cytotoxic agents, antibodies, or ADCs refers to the addition of the cytotoxic agent, antibody or ADC (i.e., DM1 or cD31N-DM1, etc.) to the culture media for a set duration.
BRCA2 deficient (BRCA2′) cells are more sensitive to DM1 because BRCA2 participates in DNA double-stranded break (DSB) repair.

[2] = system: DNA damage response proteins; experiment: Western blot of DNA damage response proteins in PEO-4 cells; assay type: cell-based; settings: 100 nM, 24 and 48 hours
Method: PEO-4 (WT) and PEO-1 (BRCA2^−/−) ovarian cancer cells were treated with 100 nM of SN38, cD31N or cD31N-SN38 and collected at 24 and 48 hours of treatment for Western blot analysis to measure specific protein markers of DNA damage response as previously described.

WT HCT116 cells = experiment: Clonogenic assay in WT HCT116 cells; assay type: cell-based
Method: (§2) Clonogenic or colony formation assays are in vitro assays that can measure the survival or growth of cells on a single-cell level based on the ability of a single cell to grow into a colony. WT or BRCA2^−/− DLD-1 cells were plated with different concentrations of SN38, 3E10 antibody, or 3E10-SN38 conjugate added into the clonogenic assay media. After 7 days for WT cells or 10 days for BRCA2^−/− cells, colony numbers were counted to quantify DLD-1 cell survival. […] Consistent with earlier results, DLD-1 cell survival was concentration-dependent.
(§3) The effects of treatment with SN38 or 3E10-SN38 conjugates on HCT116 cells were tested in clonogenic assays as previously described. WT and IDH1^mut HCT116 cells were treated with SN38, cD31N antibody, or cD31N-SN38 conjugate. Cell survival of WT (FIG. 25A) and IDH1^mut HCT116 cells (FIG. 25B) was quantified after 7 days for WT cells or 10 days for […].

DLD-1 cells = experiment: treatment duration, single dose of SN38 or 3E10-SN38 conjugates, cancer cell growth (Example 7); assay type: cell-based; settings: effects dose dependent
Excerpt: FIGS. 14, 15, and 16 show the cell viability of WT and BRCA2^−/− DLD-1 cells after treatment with SN38, cWT-SN38 or cD31N-SN38 at 3, 5, and 7 days post-treatment, respectively.
FIGS. 14A, 15A, and 16A show the viability of WT DLD-1 cells and FIGS. 14B, 15B, and 16B show the viability of BRCA2^−/−- DLD-1 cells. The calculated EC50 values are provided.
FIGS. 17 and 18 show the effects of shorter and longer term treatment on cell viability in WT DLD-1 cells (FIGS. 17A and 17B) and BRCA2^−/−- DLD-1 cells (FIGS. 18A and 18B) at day 7 after treatment with SN38 or cD31N-SN38 conjugate. Shorter term treatment was defined as a 24 hour treatment followed by a change to fresh treatment-free media. Longer term treatment was defined as 7 days of treatment without a change of medium. The calculated EC50 values are provided.

[3] = system: LoVo colorectal cancer cells; experiment: Cell viability of LoVo cells after 7 days of treatment; assay type: cell-based
Method: LoVo colorectal cancer cells were treated with SN38, cD31N antibodies, V66 3E10 antibodies, and conjugates of the present disclosure. […] The EC50 values were calculated and are set forth below in Table 3.

HCT116-IDH1^mut cells = experiment: Clonogenic assay in HCT116-IDH1mut cells; assay type: cell-based; settings: after 10 days
Method: as §2, §3

[4] = system: DNA damage response proteins such as γH2AX, p-ATM, and p-ATR; experiment: Western blot of DNA damage response proteins in IDH1mut HCT116 cells; assay type: cell-based; settings: IDH1mut HCT116, 100 nM, 24 hours
Method: (§4) DNA damage induced by SN38 or the humanized 3E10-SN38 conjugates in WT and IDH1^mut HCT116 cells was assessed by measuring the levels of proteins involved in DNA damage response, p-ATM, p-ATR, pChk2, pChk1, 7H2AX and H2AX. HCT116 cells were treated with 100 nM of SN38, V66 antibody, or V66-SN38 conjugate and collected for Western blot after 24 hours and the results are shown in FIG. 26. No treatment (NT) was used as control.

[5] = system: DNA damage response proteins such as γH2AX, p-ATM, and p-ATR; experiment: Western blot of DNA damage response proteins in WT HCT116 cells; assay type: cell-based; settings: WT HCT116, 100 nM, 24 hours
Method: as §4

WT DLD-1 cells = experiment: Shorter versus longer term treatment, viability of WT DLD-1 cells; assay type: cell-based, human
Method: (§5) To determine whether the EC50 values would change based on the duration of the treatment with 3E10-SN38 conjugates, WT or BRCA2^−/− DLD-1 cells were treated with different concentrations of SN38, cD31N antibody, or cD31N-SN38 conjugate and cell viability, and the EC50 values were tracked over time. Shorter term treatment was defined as a 24 hour treatment followed by a change to fresh treatment-free medium. Longer term treatment was defined as treatment without a change of medium for 7 days (e.g., the treatment is not removed).

[6] = system: PEO-1 (BRCA2^−/−) ovarian adenocarcinoma cells; experiment: Cell viability of PEO-1 cells; assay type: cell-based; settings: PEO-1 (BRCA2-/-) cells, at 7 days
Excerpt: as §1
The effects of longer-term treatment with SN38 and cD31N-SN38 on PEO-4 (WT) and PEO-1 (BRCA2^−/−) ovarian cancer cells were investigated.

BRCA2^−/− DLD-1 cells [7] = experiment: Clonogenic assay in BRCA2-/- DLD-1 cells; assay type: cell-based, human; settings: BRCA2-/- DLD-1, after 10 days
Method: as §2

BRCA2^−/− DLD-1 cells [8] = experiment: Shorter versus longer term treatment, viability of BRCA2-/- DLD-1 cells; assay type: cell-based, human
Method: as §5

CCc1c2c(nc3ccc(O)cc13)-c1cc3c(c(=O)n1C2)COC(=O)[C@]3(O)CC [SN38, SN-38]
EC50 [1]: 0.65 nM
protein expression of DNA damage response proteins [2]: protein expression of DNA damage response proteins was increased
survival fraction (WT HCT116 cells; 1 nM): 0%
cell survival (clonogenic) (WT HCT116 cells; after 7 days): low levels of cell survival in a concentration-dependent manner
long-term effects on cancer cell growth (DLD-1 cells): can have long-term effects on cancer cell growth
EC50 [3]: 5.8 nM
cell viability [3]: strongest effect on cell viability
cell survival (clonogenic) (HCT116-IDH1^mut cells): low levels of cell survival
protein levels of DNA damage response proteins [4]: increased the protein levels of DNA damage response proteins such as γH2AX, p-ATM, and p-ATR
protein levels of DNA damage response proteins [5]: increased the protein levels of DNA damage response proteins such as γH2AX, p-ATM, and p-ATR
cell viability (WT DLD-1 cells; WT DLD-1, day 7 of longer term treatment): cell viability was reduced
cell viability and EC50, longer term versus shorter term treatment (WT DLD-1 cells; WT DLD-1, 7 days without change of medium vs 24 hour treatment): lower cell viability and lower EC50 values than with shorter term treatment
cell viability [6]: reduced cell viability in a concentration-dependent manner resulting in low EC50 values
cell survival (colony numbers) (BRCA2^−/− DLD-1 cells [7]): reduced cell survival
cell viability (BRCA2^−/− DLD-1 cells [8]; BRCA2-/- DLD-1, day 7 of longer term treatment): cell viability was reduced
cell viability and EC50, longer term versus shorter term treatment (BRCA2^−/− DLD-1 cells [8]; BRCA2-/- DLD-1, 7 days without change of medium vs 24 hour treatment): lower cell viability and lower EC50 values than with shorter term treatment
